Test results published in publication PMC9144902, “Metal(II) Complexes of the Fluoroquinolone Fleroxacin: Synthesis, Characterization and Biological Profile” (Pharmaceutics, 2022).

Legend:
EB–DNA adduct (CT DNA) = assay: Competitive study with EB (EB–DNA fluorescence quenching); format: binding, calf; settings: for Ksv, Stern–Volmer constant: EB–DNA adduct; for ΔI/Io, percentage of EB–DNA fluorescence quenching: [EB] = 20 μM, [DNA] = 26 μM, λexc 540 nm, λem 592 nm; for EB–DNA relative fluorescence emission intensity, % of the initial (I/Io): λemission = 592 nm, final value (up to), Figure S14; for kq, EB–DNA quenching constant: τo = 23 ns
Experimental: Ethidium bromide is a typical marker of intercalation because it can intercalate between adjacent DNA bases with its planar phenanthridine ring.
The fluorescence emission spectra of the EB–DNA adduct ([EB] = 20 μM, [DNA] = 26 μM) in the absence and presence of the compounds were recorded at increasing amounts of the respective compounds. […] As a conclusion, an intercalative interaction of the complexes with CT DNA can be proposed.
The values of the Stern–Volmer constants (Ksv) for the compounds were calculated using the linear Stern–Volmer equation (Equation (S2)) and were of the order of 10^5 M^−1 (Table 8), indicating tight binding of the complexes with DNA [61]. The Ksv values for the complexes are in the range found for a number of metal(II)–quinolone complexes, and complex 12 presents the highest Ksv value (Ksv = 7.25(±0.30) × 10^5 M^−1) among the compounds studied. In addition, the EB–DNA quenching constants (kq) for the compounds were calculated with Equation (S3), assuming τo = 23 ns as the fluorescence lifetime. The values of kq (Table 8) are much higher than the value of 10^10 M^−1s^−1, indicating a static mechanism of EB–DNA fluorescence quenching induced by the compounds, which can result from the formation of a new adduct apparently consisting of each complex and DNA [61].
In order to determine and confirm the DNA–binding mode of the compounds, a competitive study with EB as an intercalating marker is performed b y fluorescence emission spectroscopy.
Therefo re, the E B–displacing abilit y of the compounds from its EB –DN A conjugate was ex amined.
The DNA–EB adduct was prepared b y addition of 20 μM EB and 26 μM CT DNA in buffer solution (150 mM NaCl and 15 mM trisodium citrate at pH 7.0). The potential intercalation of the compounds between the DNA–bases was studied by the addition of a certain amount of the compound solution into the EB–DNA adduct solution. The influence of the compounds on the EB – DNA solution was monitored through the changes of the fluorescence emission spectra at excitation […]
wavelen gth (λex ) at 540 nm [S3]. […]
room temperature in solution or in the presence of DNA, under the same experimental conditions (λex = 540 nm). Bearing t hat in mind, the observed quenching of the EB–DNA solution is evidentl y associated to the displacement of EB from its EB–DNA adduct.
The quenching effici ency (KSV) for each compound was assessed according to the Stern – Volmer equation: Io =1+ k τ [Q] = 1+ K [Q], (eq. S2) [S3] where I0 and I = the fluorescence […]
emission intensities of EB–DNA in the absence and presence of the quencher, respectivel y, [Q] = the concentration of the quencher (i.e. compounds). KSV is obtained from t he Stern–Volmer plots b y the slope of the diagram I0/ I versus [Q]. Taking τ0 = 23 ns as the fluorescence lifetime of the EB– DNA s ystem [S5], the EB –DNA quenching constants (k q) of the compounds can be determined accordin g to eq.S3: K SV = kqτo . […]
[S2] Irgi, E.P.; Geromichalos, G.D.; Balala, S.; Kljun, J.; Kalogiannis, S.; Papadopoulos, A.; Turel, I.; Psomas, G. Cobalt(II) complexes with quinolone antimicrobial drug oxolinic acid: […]
[ S 5] Heller, D.P.; Greenstock, C.L. Fluorescence lifetime analysis of DNA intercalated ethidium bromide and quenching by free d ye. Biophys. Chem . 1994, 50, 305–312.

CT DNA = assay: Study of the DNA-interaction by cyclic voltammetry; format: binding, calf; settings: for Epa(f), anodic potential / Epc(f), cathodic potential / Epa(b), anodic potential / Epc(b), cathodic potential: M(II)/M(I), 1:2 DMSO/buffer; for Epa(f), anodic potential / Epc(f), cathodic potential: absence of CT DNA; for Epa(b), anodic potential / Epc(b), cathodic potential: presence of CT DNA; for Kr/Kox, ratio of equilibrium DNA-binding constants (reduced/oxidized form): eq. S6
Experimental: Cyclic voltammetry was used to study the interaction of the complexes with CT DNA. An intercalative interaction will induce a positive shift for the electrochemical potential(s) of metal oxidation/reduction, whereas, in the case of electrostatic interaction, a negative shift in the potential(s) may occur. The cyclic voltammograms of the complexes in a 1:2 DMSO:buffer solution (0.33 mM) were recorded in the absence and presence of the CT DNA solution (Figure S13). The predominant electrochemical feature for all complexes is a positive shift in the potential in the presence of CT DNA (ΔEpc/a = (–30)–(+127) mV). Consequently, the intercalative nature of the interaction of the complexes with DNA can be inferred from the presented data.
In order to evaluate further the redox behavior of the complexes, the corresponding equilibrium constants were calculated by determining the ratio Kr/Kox in accordance to Equation (S6), where Kox and Kr are the DNA-binding constants for the oxidized and reduced form, respectively, of the metal ions. For all complexes, the Kr/Kox ratio is close to or above 1 (Table 7), showing the selective binding of DNA to the […] form of the complexes. […]
S3.3 Study of the DNA –interaction by cyclic vol ta mmetry
Cyclic voltammetr y can be also used in order to calculate the corresponding equilibrium constant for the redox process. The ratio of the DNA–binding constants for the reduced (K r) and oxidized forms (Kox) of t he complex es (Kr/Kox) w as calculat ed according t o eq. S6:
Δ = = 0.059 × lo gEE E K oxoo o (eq. S6) […]
where Eo and Eo are the formal potentials of M(II)/M(I) redox couple in the fully bound and […]
free complexes, respectivel y. Kox and Kr are the binding constants for the binding of the oxidized and reduced species to DNA, respectivel y [S8] . […]

Row | SMILES | Ksv, Stern–Volmer constant (EB–DNA adduct (CT DNA)) | ΔI/Io, percentage of EB–DNA fluorescence quenching (EB–DNA adduct (CT DNA)) [%] | EB–DNA relative fluorescence emission intensity, % of the initial (I/Io) (EB–DNA adduct (CT DNA)) [%] | kq, EB–DNA quenching constant (EB–DNA adduct (CT DNA)) | Epa(f), anodic potential (CT DNA) [mV] | Epc(f), cathodic potential (CT DNA) [mV] | Epa(b), anodic potential (CT DNA) [mV] | Epc(b), cathodic potential (CT DNA) [mV] | Kr/Kox, ratio of equilibrium DNA-binding constants (reduced/oxidized form) (CT DNA)
1 | CN1CCN(c2c(F)cc3c(=O)c(C(=O)[O-])cn(CCF)c3c2F)CC1.CN1CCN(c2c(F)cc3c(=O)c(C(=O)[O-])cn(CCF)c3c2F)CC1.[Mn+2].c1cnc2c(c1)ccc1cccnc12 [complex 11, [Mn(flrx)2(phen)]] | 1.83(±0.03) × 10^5 M^–1 | 76.7 | 23.3 | 7.94(±0.14) × 10^12 M^−1s^−1 | −501 | −706 | −499 | −700 | 1.07
2 | CN1CCN(c2c(F)cc3c(=O)c(C(=O)[O-])cn(CCF)c3c2F)CC1.CN1CCN(c2c(F)cc3c(=O)c(C(=O)[O-])cn(CCF)c3c2F)CC1.CO.CO.[Co+2] [complex 4, [Co(flrx)2(MeOH)2]] | 1.36(±0.03) × 10^5 M^–1 | 64.1 | 35.9 | 5.93(±0.14) × 10^12 M^−1s^−1 | −483 | −724 | −455 | −735 | 1.15
3 | CN1CCN(c2c(F)cc3c(=O)c(C(=O)[O-])cn(CCF)c3c2F)CC1.CN1CCN(c2c(F)cc3c(=O)c(C(=O)[O-])cn(CCF)c3c2F)CC1.[Ni+2].c1cnc2c(c1)ccc1cccnc12 [complex 19, [Ni(flrx)2(phen)]] | 3.18(±0.14) × 10^5 M^–1 | 68.1 | 31.9 | 1.38(±0.05) × 10^13 M^−1s^−1 | −489 | −706 | −460 | −718 | 1.15
4 | CN1CCN(c2c(F)cc3c(=O)c(C(=O)[O-])cn(CCF)c3c2F)CC1.CN1CCN(c2c(F)cc3c(=O)c(C(=O)[O-])cn(CCF)c3c2F)CC1.[Co+2].c1cnc2c(c1)ccc1cccnc12 [complex 17, [Co(flrx)2(phen)]] | 3.56(±0.10) × 10^5 M^–1 | 69.8 | 30.2 | 1.55(±0.05) × 10^13 M^−1s^−1 | −523 | −695 | −518 | −689 | 1.10
5 | CN1CCN(c2c(F)cc3c(=O)c(C(=O)[O-])cn(CCF)c3c2F)CC1.CN1CCN(c2c(F)cc3c(=O)c(C(=O)[O-])cn(CCF)c3c2F)CC1.O.O.[Mn+2] [complex 2, [Mn(flrx)2(H2O)2]] | 6.07(±0.23) × 10^5 M^–1 | 74.4 | 15.6 | 2.64(±0.10) × 10^13 M^−1s^−1 | −455 | −684 | −466 | −678 | 0.96
